The source of these data is patent US20260193278A1, “NOVEL PHTHALOCYANINE COMPOUNDS AND THE USE THEREOF FOR THE TREATMENT OF DISEASES” (RHODES UNIVERSITY, priority 2022, published 2026).

Format in all cases: cell-based
In data set [1] the test system is E. coli. As to the kind of experiment: Dark toxicity against E. coli, concentration study at 0 min (CFU counting). Conditions: in the dark; for Ecoli log CFU/ml (logarithmic reduction value): at the concentration of the μM column; for Ecoli μM (concentration corresponding to the logarithmic reduction): range tested 0-15 μM. The protocol:
(§1) 500 μM stock solutions of the samples were prepared in ultra-pure water (5% DMSO) and used at different concentrations in the biological assays.
(§2) Two bacterial strains were used for the PACT studies; S. aureus as a gram-(+) bacterium and E. coli as a gram-(−) negative bacterium. Stock cultures were grown aerobically in 6 mL of nutrient broth incubated at 37° C. on a rotary shaker (~200 rpm) to obtain bacteria cultures. The incubation was maintained until the optical density of the culture at 600 nm was determined to be between 0.6 and 0.8. The resulting bacterial solution was centrifuged to remove the broth, and bacterial cells were washed three times with PBS. The solution of the bacteria was prepared by diluting with PBS to obtain […] bacteria solutions corresponding to ~10^9 and ~10^8 colony forming units (CFU)/mL, respectively.
(§3) The bacteria/photosensitizer mixtures were incubated in an oven equipped with a shaker for 30 min in the dark at 37° C. before plating. 100 μL of solution was taken from the suspension and was immediately inoculated on agar plates to determine the activity at 0 min without treatment. The number of colonies was then counted on each plate after 18 h of incubation at 37° C. Control treatments were performed in the absence of photosensitizer. All experiments were carried out three times. The data for CFU/mL were converted to the logarithmic form.

Data set [2] relates to S. aureus. The data set is described as follows: Dark toxicity against S. aureus, concentration study at 0 min (CFU counting). Conditions: for log reduction (dark toxicity): 0 min; for Staph log CFU/ml (logarithmic reduction value) / Staph μM (concentration corresponding to the logarithmic reduction): in the dark, at 0 min; for Staph log CFU/ml (logarithmic reduction value): at the concentration of the μM column; for Staph μM (concentration corresponding to the logarithmic reduction): range tested 0-10 μM. How it is done:
as §1, §2, §3

Data set [3] has as its system S. aureus. The data set is described as follows: Photodynamic inactivation of S. aureus (with irradiation). Conditions: after irradiation 20 min at 0.5, 1 and 2.5 μM. How it is done:
as §2
as §3, with “Pc solutions were prepared by dissolving in water containing 5% DMSO and applied over the range of 0-10 μM for S. aureus and 0-15 μM for E. coli. The bacteria/photosensitizer” for “The bacteria/photosensitizer”

The subject of data set [4] is MCF-7 (human breast adenocarcinoma) cells. As to the kind of experiment: In vitro dark cytotoxicity, MCF-7 cells (anticancer studies). To be noted: MCF-7, dark; for Min. Death conc. / Cell death: 24 h; for Cell death: at the Min. Death conc. The protocol: MCF-7 (human breast adenocarcinoma) cells were cultured in Dulbecco's modified Eagle's medium-10% fetal bovine serum (DMEM-FBS) and PSA (penicillin/streptomycin/Amphotericin B) at 37° C. in an incubator (5% CO2) in 75 cm^2 vented flasks. The cultures were grown as a monolayer. The growth cells were transferred to well plates by trypsinizing with 0.25% trypsin-EDTA. The Pc stock concentrations were prepared by separately dissolving them in DMSO (1%) and diluting in water and the Pc gradient concentration was prepared by taking known aliquots from the stock and finally made up to marked volume with supplemented media with phenol red.
It was studied from […] both in the dark. 100 μL each of the newly prepared gradient Pcs concentration of 0 μg/mL (control), 5 μg/mL, 10 μg/mL, 20 μg/mL, 40 μg/mL, 60 μg/mL 80 μg/mL, 100 μg/mL and 120 μg/mL were administered on the incubated seeded cells. The 96 well cell culture plates containing the cells and the Pcs were incubated at 37° C. and 5% CO2 in the dark for 24 h. After 24 h treatment, the wells were rinsed with 100 μL DPBS. Cell survival was expressed as percentage of control cells (cells without Pcs). Post treatment cell viability was measured using the cell proliferation […] reagent (WST-1 assay) on a Synergy 2 multi-mode microplate reader (BioTek®) at a wavelength of 450 nm according to the following equation 1.

Consider `C[n+]1c(-c2ccc(Oc3ccc4c(c3)C3=Nc5c6ccc(Oc7ccc(-c8[nH]c9cc(Cl)cc(Cl)c9[n+]8C)cc7)cc6c6[n]5[Zn][n]5c(c7ccc(Oc8ccc(-c9[nH]c%10cc(Cl)cc(Cl)c%10[n+]9C)cc8)cc7c5=NC5=NC(=N6)c6cc(Oc7ccc(-c8[nH]c9cc(Cl)cc(Cl)c9[n+]8C)cc7)ccc65)=NC4=N3)cc2)[nH]c2cc(Cl)cc(Cl)c21.[I-].[I-].[I-].[I-]` [Compound 193], for which, in data set [1], the “Ecoli log CFU/ml (logarithmic reduction value)” value was 8.79 log CFU/ml and the “Ecoli μM (concentration corresponding to the logarithmic reduction)” value is listed as 1 μM. The “log reduction (dark toxicity)” value in data set [2] (at 5 and 10 μM) worked out at 9.63. Further, in data set [2], the “Staph log CFU/ml (logarithmic reduction value)” value is 9.61 log CFU/ml and the “Staph μM (concentration corresponding to the logarithmic reduction)” value came out at 4 μM. For the same compound, the “log reduction (photocytotoxicity)” value in data set [3] is given as 9.63. Further, in data set [4], the “optimal concentration to kill the cancer cells” value is 40 µM, the “Min. Death conc.” value amounted to 40 µM, the Cell death amounted to 72.7% and the “cancer cells killed at the optimal concentration” value is recorded as 72.7%.
Take `C[n+]1c(-c2ccc(Oc3ccc4c(c3)C3=Nc5c6ccc(Oc7ccc(-c8[nH]c9ccc(Cl)cc9[n+]8C)cc7)cc6c6[n]5[Co][n]5c(c7ccc(Oc8ccc(-c9[nH]c%10ccc(Cl)cc%10[n+]9C)cc8)cc7c5=NC5=NC(=N6)c6cc(Oc7ccc(-c8[nH]c9ccc(Cl)cc9[n+]8C)cc7)ccc65)=NC4=N3)cc2)[nH]c2ccc(Cl)cc21.[I-].[I-].[I-].[I-]` [Compound 243]: in data set [1], the “Ecoli log CFU/ml (logarithmic reduction value)” value was found to be 8.79 log CFU/ml and the “Ecoli μM (concentration corresponding to the logarithmic reduction)” value is reported as 2.5 μM. In data set [2], the “Staph log CFU/ml (logarithmic reduction value)” value was 9.24 log CFU/ml and the “Staph μM (concentration corresponding to the logarithmic reduction)” value is 4 μM. For the same compound, in data set [4], the “Min. Death conc.” value is 120 µM and the Cell death is 62.4%.
As to `C[n+]1c(-c2ccc(Oc3ccc4c(c3)C3=Nc5c6ccc(Oc7ccc(-c8[nH]c9cc(Cl)cc(Cl)c9[n+]8C)cc7)cc6c6[n]5[Co][n]5c(c7ccc(Oc8ccc(-c9[nH]c%10cc(Cl)cc(Cl)c%10[n+]9C)cc8)cc7c5=NC5=NC(=N6)c6cc(Oc7ccc(-c8[nH]c9cc(Cl)cc(Cl)c9[n+]8C)cc7)ccc65)=NC4=N3)cc2)[nH]c2cc(Cl)cc(Cl)c21.[I-].[I-].[I-].[I-]` [Compound 200], in data set [1], the “Ecoli log CFU/ml (logarithmic reduction value)” value is reported as 8.79 log CFU/ml and the “Ecoli μM (concentration corresponding to the logarithmic reduction)” value worked out at 1 μM. For the same compound, the “destruction of bacteria (FIG. 2)” value in data set [2] (at 0.5 μM) was “complete destruction”. In addition, the “log reduction (dark toxicity)” value in data set [2] (at 0.5-10 μM) stood at 9.63. Also, in data set [2], the “Staph log CFU/ml (logarithmic reduction value)” value is listed as 9.61 log CFU/ml and the “Staph μM (concentration corresponding to the logarithmic reduction)” value is 0.5 μM. Besides, in data set [4], the “optimal concentration to kill the cancer cells” value stood at 40 µM, the “Min. Death conc.” value is 40 µM, the Cell death is given as 80.9% and the “cancer cells killed at the optimal concentration” value is on record as 80.9%.
Consider “Tetrakis [4-(4-(5-bromo-1H-benzo[d]imidazol-2-yl)phenoxy phthalocyaninato] copper(II) tetraiodide [Compound 219]”, for which, in data set [1], the “Ecoli log CFU/ml (logarithmic reduction value)” value stood at 8.78 log CFU/ml and the “Ecoli μM (concentration corresponding to the logarithmic reduction)” value is listed as 12.5 μM. Besides, in data set [2], the “Staph log CFU/ml (logarithmic reduction value)” value is given as 9.15 log CFU/ml and the “Staph μM (concentration corresponding to the logarithmic reduction)” value is listed as 10 μM. Besides, in data set [4], the “Min. Death conc.” value amounted to 10 µM and the Cell death turned out to be 36.9%.
As to `C[n+]1c(-c2ccc(Oc3ccc4c(c3)C3=Nc5c6ccc(Oc7ccc(-c8[nH]c9ccc(Cl)cc9[n+]8C)cc7)cc6c6[n]5[Cu][n]5c(c7ccc(Oc8ccc(-c9[nH]c%10ccc(Cl)cc%10[n+]9C)cc8)cc7c5=NC5=NC(=N6)c6cc(Oc7ccc(-c8[nH]c9ccc(Cl)cc9[n+]8C)cc7)ccc65)=NC4=N3)cc2)[nH]c2ccc(Cl)cc21.[I-].[I-].[I-].[I-]` [Compound 244], in data set [1], the “Ecoli log CFU/ml (logarithmic reduction value)” value is on record as 8.79 log CFU/ml and the “Ecoli μM (concentration corresponding to the logarithmic reduction)” value worked out at 15 μM. In addition, in data set [2], the “Staph log CFU/ml (logarithmic reduction value)” value is reported as 9.24 log CFU/ml and the “Staph μM (concentration corresponding to the logarithmic reduction)” value is 10 μM. In data set [4], the “Min. Death conc.” value worked out at 80 µM and the Cell death is listed as 90.8%.
For the compound `C[n+]1c(-c2ccc(Oc3ccc4c(c3)C3=Nc5c6ccc(Oc7ccc(-c8[nH]c9cc(Br)cc(Cl)c9[n+]8C)cc7)cc6c6[n]5[Zn][n]5c(c7ccc(Oc8ccc(-c9[nH]c%10cc(Br)cc(Cl)c%10[n+]9C)cc8)cc7c5=NC5=NC(=N6)c6cc(Oc7ccc(-c8[nH]c9cc(Br)cc(Cl)c9[n+]8C)cc7)ccc65)=NC4=N3)cc2)[nH]c2cc(Br)cc(Cl)c21.[I-].[I-].[I-].[I-]` [Compound 233], in data set [1], the “Ecoli log CFU/ml (logarithmic reduction value)” value is 8.79 log CFU/ml and the “Ecoli μM (concentration corresponding to the logarithmic reduction)” value turned out to be 1 μM. Besides, in data set [2], the “Staph log CFU/ml (logarithmic reduction value)” value came to 9.25 log CFU/ml and the “Staph μM (concentration corresponding to the logarithmic reduction)” value was determined as 4 μM. In data set [4], the “Min. Death conc.” value was 60 µM and the Cell death turned out to be 91.7%.
Turning to “Tetrakis [4-(4-(5-bromo-1H-benzo[d]imidazol-2-yl)phenoxy phthalocyaninato] zinc(II) tetraiodide [Compound 217]”, in data set [1], the “Ecoli log CFU/ml (logarithmic reduction value)” value was 8.78 log CFU/ml and the “Ecoli μM (concentration corresponding to the logarithmic reduction)” value is on record as 5 μM. In data set [2], the “Staph log CFU/ml (logarithmic reduction value)” value was 9.15 log CFU/ml and the “Staph μM (concentration corresponding to the logarithmic reduction)” value is 1 μM. In addition, in data set [4], the “Min. Death conc.” value was 5 µM and the Cell death is 40.1%.
With `C[n+]1c(-c2ccc(Oc3ccc4c(c3)C3=Nc5c6ccc(Oc7ccc(-c8[nH]c9cc(F)cc(Br)c9[n+]8C)cc7)cc6c6[n]5[Cu][n]5c(c7ccc(Oc8ccc(-c9[nH]c%10cc(F)cc(Br)c%10[n+]9C)cc8)cc7c5=NC5=NC(=N6)c6cc(Oc7ccc(-c8[nH]c9cc(F)cc(Br)c9[n+]8C)cc7)ccc65)=NC4=N3)cc2)[nH]c2cc(F)cc(Br)c21.[I-].[I-].[I-].[I-]` [Compound 231], in data set [1], the “Ecoli log CFU/ml (logarithmic reduction value)” value worked out at 8.79 log CFU/ml and the “Ecoli μM (concentration corresponding to the logarithmic reduction)” value is 12.5 μM. Moreover, in data set [2], the “Staph log CFU/ml (logarithmic reduction value)” value is given as 9.25 log CFU/ml and the “Staph μM (concentration corresponding to the logarithmic reduction)” value came to 0.5 μM. Besides, in data set [4], the “Min. Death conc.” value came out at 5 µM and the Cell death is reported as 56.08%.
